The values that follow come from ChEMBL document CHEMBL1201862, “PubChem BioAssay data set” (2004).

Calls of active or inactive are those of the source.

In assay [1] the target is T1, High affinity choline transporter 1 (Homo sapiens, UniProt Q9GZV3).
T1 sequence (Q9GZV3 whole entry): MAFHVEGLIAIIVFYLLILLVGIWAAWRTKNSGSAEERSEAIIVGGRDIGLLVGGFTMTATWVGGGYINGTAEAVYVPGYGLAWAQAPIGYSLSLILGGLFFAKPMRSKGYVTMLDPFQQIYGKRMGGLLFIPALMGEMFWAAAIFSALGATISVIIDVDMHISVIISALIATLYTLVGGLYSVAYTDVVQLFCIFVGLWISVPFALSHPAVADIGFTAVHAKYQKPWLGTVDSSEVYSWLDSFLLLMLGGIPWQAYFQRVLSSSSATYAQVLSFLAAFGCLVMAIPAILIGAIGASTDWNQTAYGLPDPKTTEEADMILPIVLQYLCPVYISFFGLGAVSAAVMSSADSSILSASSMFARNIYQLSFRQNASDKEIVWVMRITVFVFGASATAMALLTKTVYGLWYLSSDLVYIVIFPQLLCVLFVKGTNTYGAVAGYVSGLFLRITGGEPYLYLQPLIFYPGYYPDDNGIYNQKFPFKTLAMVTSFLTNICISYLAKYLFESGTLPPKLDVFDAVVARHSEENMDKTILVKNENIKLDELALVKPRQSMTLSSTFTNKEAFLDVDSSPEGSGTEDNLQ
The experiment in a line: human choline transporter blockers, potency – cell-based, 5-point CRC, membrane potential dye, dose response (AID 504840). The format is functional.

Assay [2] deals with T2, RNA-binding protein pos-1 (Caenorhabditis elegans, UniProt G5EF15).
T2 sequence (G5EF15 whole entry): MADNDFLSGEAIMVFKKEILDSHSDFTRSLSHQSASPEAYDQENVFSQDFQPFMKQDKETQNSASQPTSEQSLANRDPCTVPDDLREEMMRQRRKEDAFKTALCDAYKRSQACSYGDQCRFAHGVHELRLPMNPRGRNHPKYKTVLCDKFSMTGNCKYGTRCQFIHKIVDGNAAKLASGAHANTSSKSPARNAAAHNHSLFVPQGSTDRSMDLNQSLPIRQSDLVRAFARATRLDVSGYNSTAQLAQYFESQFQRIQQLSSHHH
The experiment in a line: disruptors of C. elegans POS-1 RNA interaction – biochemical, fluorescence polarization, dose response (AID 1964).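 Also: purified POS-1 fused to maltose binding protein made in E. coli; potency of compounds blocking POS-1 binding to fluorescent RNA.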

For assay [3], the target named is T3, Zinc finger protein mex-5 (Caenorhabditis elegans, UniProt Q9XUB2).
T3 sequence (Q9XUB2 whole entry): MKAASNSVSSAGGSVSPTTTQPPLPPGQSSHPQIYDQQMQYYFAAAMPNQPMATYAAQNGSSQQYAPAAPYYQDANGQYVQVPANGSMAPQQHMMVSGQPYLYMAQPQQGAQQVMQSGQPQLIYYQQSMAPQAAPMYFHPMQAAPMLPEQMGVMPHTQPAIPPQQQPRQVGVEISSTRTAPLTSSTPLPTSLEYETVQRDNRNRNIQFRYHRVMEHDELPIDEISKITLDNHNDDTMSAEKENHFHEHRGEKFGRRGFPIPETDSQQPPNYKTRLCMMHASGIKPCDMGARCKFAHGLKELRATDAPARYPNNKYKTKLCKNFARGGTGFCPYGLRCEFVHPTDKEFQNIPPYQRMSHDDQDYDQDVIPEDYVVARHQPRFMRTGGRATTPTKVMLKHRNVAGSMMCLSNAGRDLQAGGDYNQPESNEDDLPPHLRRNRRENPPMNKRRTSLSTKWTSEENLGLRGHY
The experiment in a line: potency of MEX-5 RNA-binding blockers – biochemical, C. elegans, fluorescence polarization, dose response (AID 1960).

A short description of assay [4]: alpha-synuclein stem-loop luciferase translation blockers – H4 neuroglioma cells, luminescence, confirmation (AID 1988). The assay is classed as functional, cell-based.
Assay [5] is described as follows: Luminescence Cell-Based Dose Retest to Confirm Inhibitors of Cancer Stem Cells. [Related pubchem assays (depositor defined):AID2717, AID2721]. Conditions: Homo sapiens. The assay is classed as functional.
Assay [6] can be described thus: Luminescence Cell-Based Dose Response HTS to Identify Inhibitors of 5'UTR Stem-Loop Driven Prion Protein mRNA Translation in H4 Neuroglioblastoma Cells. [Related pubchem assays: 1827 (Project Summary), 1813 (Primary HTS)]. The format is functional.
Assay [7] can be described thus: luciferase reporter signal suppression in cells – H4 neuroglioma cells, luminescence, dose response (AID 1990). The format is functional, cell-based.
The target of assay [8] is T4, Polyadenylate-binding protein 1 (Homo sapiens, UniProt P11940). The experiment in a line: MLLE domain peptide-binding blockers, IC50 – biochemical, fluorescence polarization, FITC-PAM2 peptide, dose response (AID 602259). The assay is classed as functional. Conditions: read-out: IC50_Mean.
In assay [9] the target is T4, Polyadenylate-binding protein 1. The experiment in a line: MLLE binding blockers, Cy5 peptide tracer – biochemical, fluorescence polarization, Cy5-PAM2 peptide, secondary, miRNA deadenylation inhibitor project, dose response (AID 602260). The format is functional. Conditions: read-out: IC50_Mean.
The target of assay [10] is T5, Protein RecA (Mycobacterium tuberculosis, UniProt P9WHJ3).
T5 sequence (P9WHJ3 whole entry): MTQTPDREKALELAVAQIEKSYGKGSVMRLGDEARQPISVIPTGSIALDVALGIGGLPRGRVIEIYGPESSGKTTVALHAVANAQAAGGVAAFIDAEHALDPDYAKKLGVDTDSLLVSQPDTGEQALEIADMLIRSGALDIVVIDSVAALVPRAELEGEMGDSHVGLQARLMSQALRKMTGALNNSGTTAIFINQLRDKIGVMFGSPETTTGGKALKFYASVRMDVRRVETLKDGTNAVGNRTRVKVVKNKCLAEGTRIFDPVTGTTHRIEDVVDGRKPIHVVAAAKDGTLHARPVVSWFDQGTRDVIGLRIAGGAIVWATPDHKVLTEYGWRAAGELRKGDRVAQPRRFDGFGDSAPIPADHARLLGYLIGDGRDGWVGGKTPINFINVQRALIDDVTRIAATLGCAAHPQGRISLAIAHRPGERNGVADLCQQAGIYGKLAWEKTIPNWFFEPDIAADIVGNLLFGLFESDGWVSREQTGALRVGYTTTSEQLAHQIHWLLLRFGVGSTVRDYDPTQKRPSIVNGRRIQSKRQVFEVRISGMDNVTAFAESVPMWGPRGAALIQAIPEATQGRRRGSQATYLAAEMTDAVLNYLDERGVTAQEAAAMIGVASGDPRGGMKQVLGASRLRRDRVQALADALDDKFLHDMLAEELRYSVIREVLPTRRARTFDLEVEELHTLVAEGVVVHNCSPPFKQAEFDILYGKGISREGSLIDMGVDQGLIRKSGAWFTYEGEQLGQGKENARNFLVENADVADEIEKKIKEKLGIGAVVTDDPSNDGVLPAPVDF
The experiment in a line: Fluorescence Cell-Free Homogeneous Dose Retest to Identify Inhibitors of RecA-Intein Splicing Activity. [Related pubchem assays (depositor defined):AID2097, AID2223, AID489010, AID492950]. The format is functional.

Assay [11] concerns the target FAD-linked sulfhydryl oxidase ALR (Homo sapiens, UniProt P55789). The experiment in a line: ALR-catalysed DTT oxidation blockers – biochemical, H2O2 detection, luminescence, cherry-pick, dose response (AID 493248).
The target in assay [12] is T6, Replicative DNA helicase DnaB (Mycobacterium tuberculosis, UniProt P9WMR3).
T6 sequence (P9WMR3 whole entry): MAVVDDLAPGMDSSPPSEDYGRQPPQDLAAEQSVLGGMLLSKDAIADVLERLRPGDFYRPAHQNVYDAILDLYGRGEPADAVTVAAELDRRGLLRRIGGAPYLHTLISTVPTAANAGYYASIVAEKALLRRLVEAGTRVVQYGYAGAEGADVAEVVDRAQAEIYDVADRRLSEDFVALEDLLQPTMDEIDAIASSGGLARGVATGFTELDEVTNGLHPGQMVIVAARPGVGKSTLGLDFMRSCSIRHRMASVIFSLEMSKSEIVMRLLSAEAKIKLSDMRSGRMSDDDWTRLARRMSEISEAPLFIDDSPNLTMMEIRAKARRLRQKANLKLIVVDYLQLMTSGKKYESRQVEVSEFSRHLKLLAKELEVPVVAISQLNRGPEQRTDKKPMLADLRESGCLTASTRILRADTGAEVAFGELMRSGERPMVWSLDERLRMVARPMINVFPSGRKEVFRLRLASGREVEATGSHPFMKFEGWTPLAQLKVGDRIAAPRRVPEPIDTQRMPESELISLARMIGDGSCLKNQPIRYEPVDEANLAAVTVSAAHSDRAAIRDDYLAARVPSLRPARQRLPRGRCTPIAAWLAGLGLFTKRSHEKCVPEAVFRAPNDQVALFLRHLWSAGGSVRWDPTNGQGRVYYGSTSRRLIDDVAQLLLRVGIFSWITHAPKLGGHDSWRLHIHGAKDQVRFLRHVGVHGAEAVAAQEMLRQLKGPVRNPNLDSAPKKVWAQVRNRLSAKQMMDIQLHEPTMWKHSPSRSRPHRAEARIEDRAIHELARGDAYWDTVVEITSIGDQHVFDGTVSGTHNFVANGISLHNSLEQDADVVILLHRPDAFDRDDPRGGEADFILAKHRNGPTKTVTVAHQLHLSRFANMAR
The experiment in a line: DnaB intein splicing inhibitors, dose response, biochemical, cell-free fluorescence (AID 449749). The format is functional.

The test system of assay [13] is INS1. The experiment in a line: INS-1E survival protection against cytokine death – cell-based, luminescence, retest, dose response (AID 449756).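 Also: cell death triggered by IL-1 beta plus TNF-alpha plus IFN-gamma mixture; protective hits raise ATP signal compared with cytokine alone wells.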 The assay is classed as functional. Conditions: Rattus norvegicus.
Assay [14] concerns BJ. The experiment in a line: cells. The format is functional, cell-based. Conditions: Homo sapiens.
A short description of assay [15]: DRD fibroblast viability loss – cell-based, non-viral oncogenic, luminescence, dose response (AID 1934). The assay is classed as functional. Conditions: Homo sapiens.
Assay [16] relates to BJ. The experiment in a line: BJ-TERT-LT-ST fibroblast viability loss – cell-based, RAS-independent, luminescence, dose response (AID 1935).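 Also: BJ fibroblasts immortalized with TERT plus LT and ST oncogenes.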 Conditions: Homo sapiens. The format is functional.
Assay [17] concerns BJ. The experiment in a line: BJ-TERT fibroblast viability loss – cell-based, RAS-independent, luminescence, dose response (AID 1933). Conditions: Homo sapiens. The format is functional.

T4 sequence (P11940 whole entry, the tested form may be a part): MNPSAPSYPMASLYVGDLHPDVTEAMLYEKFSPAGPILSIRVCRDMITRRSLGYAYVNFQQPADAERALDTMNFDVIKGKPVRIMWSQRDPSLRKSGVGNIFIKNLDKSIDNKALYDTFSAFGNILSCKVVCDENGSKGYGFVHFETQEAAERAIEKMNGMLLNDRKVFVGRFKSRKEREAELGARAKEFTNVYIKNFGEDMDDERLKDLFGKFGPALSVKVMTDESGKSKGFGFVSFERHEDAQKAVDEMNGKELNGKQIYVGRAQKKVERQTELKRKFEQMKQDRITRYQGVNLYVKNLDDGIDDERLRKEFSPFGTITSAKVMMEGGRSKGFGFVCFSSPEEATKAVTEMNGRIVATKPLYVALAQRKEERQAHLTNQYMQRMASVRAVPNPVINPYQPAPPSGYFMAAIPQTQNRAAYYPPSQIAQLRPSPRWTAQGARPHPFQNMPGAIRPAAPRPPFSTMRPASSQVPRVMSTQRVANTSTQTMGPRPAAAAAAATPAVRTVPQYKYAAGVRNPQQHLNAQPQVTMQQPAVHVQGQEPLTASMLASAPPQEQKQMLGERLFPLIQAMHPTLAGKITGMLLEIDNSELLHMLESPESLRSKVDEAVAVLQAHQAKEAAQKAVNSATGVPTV
Sequence of FAD-linked sulfhydryl oxidase ALR (P55789 whole entry): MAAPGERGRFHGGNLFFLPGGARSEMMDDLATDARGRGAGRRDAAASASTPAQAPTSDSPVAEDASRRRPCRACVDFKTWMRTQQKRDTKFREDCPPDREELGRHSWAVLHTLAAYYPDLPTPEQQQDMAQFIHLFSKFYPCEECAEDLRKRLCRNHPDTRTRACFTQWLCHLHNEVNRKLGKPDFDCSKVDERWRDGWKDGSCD

Consider `CCCN(CC(=O)Nc1ccc(F)c(F)c1F)C(=O)Cn1c(=O)cnc2ccccc21`, for which the IC50 in [1] is 12.3 µM (active).
As for `FC(F)(F)c1ccc2c(c1)C1C=CCC1C(c1ccncc1)N2` (stereo unspecified), the EC50 in [2] and in assay [3] was > 300 µM (not active) each time.
For `COc1cc(-c2noc(C)c2C#Cc2ccccn2)cc(OC)c1OC`, the values for the EC50 in assay [4], in [6] and in assay [7] were 0.25 µM (active), > 120 µM (not active) and 9.32 µM (active), respectively. Also, the AC50 in assay [5] was 0.394 µM (active).
In the case of `N#CC1=C(N)OC2=C(C(=O)CCC2)C1c1ccc(OC(=O)N2CCOCC2)cc1` (stereo unspecified), the EC50 in assay [2] and in assay [3] was > 300 µM (not active) each time.
Take `O=C1NC(=O)N(CCc2ccc(F)cc2)C(=O)/C1=C/NCCCn1ccnc1`: the EC50 in assay [2] and in [3] was > 300 µM (not active) in each case.
`Cc1ccccc1NC(=O)c1ccc(F)c(S(=O)(=O)NCC2CCCO2)c1` (stereo unspecified): the IC50 in assay [1] was 12.3 µM (active).
Turning to `Cc1ccc(C(N)=S)c(C)c1`, the IC50 in assay [8] and in [9] was > 66 µM (inactive) each time.
Turning to `COc1ccc(Cc2c(O)nc(SCC(=O)NC34CC5CC(CC(C5)C3)C4)nc2O)cc1`, the IC50 in [8] and in assay [9] was > 66 µM (inactive) throughout.
With `CC(C)(C)c1ccc(/C=C2\Oc3cc(O)ccc3C2=O)cc1`, the results for the EC50 in assay [2] and in assay [3] were 31.4 µM (active) and 28.8 µM (active), respectively.
Turning to `COC(=O)c1cccc(-n2c(CCC(=O)O)ccc2-c2cccs2)c1`, the EC50 in assay [2] and in [3] was > 300 µM (not active) in each case.
Turning to `O=S(=O)(NCc1csc(-c2cccs2)n1)c1cccc(C(F)(F)F)c1`, in assay [1], the IC50 was 14.5 µM (active).
For `Cc1nnc(NC(=O)C2c3ccccc3Oc3ccccc32)s1`, the IC50 in assay [8] and in [9] was > 66 µM (inactive) each time.
`Cc1cccn2c(=O)c3cc(C#N)/c(=N\C(=O)c4cccs4)n(CCCOC(C)C)c3nc12`: the EC50 in assay [2] is 141 µM (inconclusive); in assay [3] it was > 300 µM (not active).
Turning to `O=C1CC(c2ccccc2)CC(=O)C1Sc1ccc(Cl)cc1` (stereo unspecified), the IC50 in [8] and in assay [9] was > 66 µM (inactive) throughout.
As to `Cn1c(=O)c2nc(COc3ccccc3)[nH]c2n(C)c1=O`, the IC50 is 29.7 µM (inactive) in [8] and 33.5 µM (inactive) in assay [9].
As for `C/C(=N\NC(=O)c1nnn(-c2nonc2N)c1-c1cccs1)c1cccc(O)c1`, the EC50 in assay [2] and in assay [3] was > 300 µM (not active) throughout.
As to `Cc1nnc(Sc2nc3ccccc3o2)c2ccccc12`, in [10], the EC50 is 1.28 µM (active). Besides, the IC50 in [1] is 13.5 µM (active). Also, the AC50 in assay [11] is 3.26 µM (active); in assay [12], 18.4 µM (active).
Take `NS(=O)(=O)c1cccc2c1c([N+](=O)[O-])cc1nc(O)c(O)nc12`: the IC50 in assay [8] and in assay [9] was > 66 µM (inactive) in each case.
Turning to `O=C(Cn1ncc2c3ccccc3n(Cc3ccccc3)c2c1=O)NCCCN1CCCC1`, in [1], the IC50 was 13.2 µM (active).
In the case of `COc1cc2[nH]c(=S)n(NC(=O)c3ccccc3)c(=O)c2cc1OC`, the IC50 in assay [8] and in assay [9] was > 66 µM (inactive) in each case.
As to `N#CC(C#N)=C(Nc1ccc(F)cc1)SCc1cccc(F)c1`, the AC50 in [13] is 3.26 µM (active). Moreover, the EC50 in assay [14] was 33.2 µM (active); in assay [15], 29.3 µM (active); in assay [16], > 150 µM (inconclusive); in assay [17], 13.1 µM (active). Besides, the IC50 in [1] was 4.79 µM (active).
